Structures can show the parent of a compound that is named as a salt.

For this assay, the target named is T1, recombinant guanylate cyclase reporter cell line (Rattus norvegicus, UniProt P19686+P20595).
T1 construct: expressed in transfected cells
T1 sequence (P20595 1-619): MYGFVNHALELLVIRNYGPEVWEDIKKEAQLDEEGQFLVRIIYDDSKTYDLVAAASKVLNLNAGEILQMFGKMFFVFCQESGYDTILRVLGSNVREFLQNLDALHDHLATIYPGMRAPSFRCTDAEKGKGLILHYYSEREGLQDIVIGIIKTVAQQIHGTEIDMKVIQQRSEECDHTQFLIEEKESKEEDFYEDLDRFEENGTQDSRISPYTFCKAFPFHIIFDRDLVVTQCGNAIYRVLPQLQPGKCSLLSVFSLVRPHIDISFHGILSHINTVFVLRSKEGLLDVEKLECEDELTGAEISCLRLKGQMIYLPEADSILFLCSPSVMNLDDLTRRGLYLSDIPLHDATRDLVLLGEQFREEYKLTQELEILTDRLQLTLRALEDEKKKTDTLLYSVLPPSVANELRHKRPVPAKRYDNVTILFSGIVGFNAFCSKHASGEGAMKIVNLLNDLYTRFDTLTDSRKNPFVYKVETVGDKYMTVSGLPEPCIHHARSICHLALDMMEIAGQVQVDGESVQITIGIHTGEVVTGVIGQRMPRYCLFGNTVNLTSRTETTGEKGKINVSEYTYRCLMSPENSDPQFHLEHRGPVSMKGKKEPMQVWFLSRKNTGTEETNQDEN
T1 sequence (P19686 1-690): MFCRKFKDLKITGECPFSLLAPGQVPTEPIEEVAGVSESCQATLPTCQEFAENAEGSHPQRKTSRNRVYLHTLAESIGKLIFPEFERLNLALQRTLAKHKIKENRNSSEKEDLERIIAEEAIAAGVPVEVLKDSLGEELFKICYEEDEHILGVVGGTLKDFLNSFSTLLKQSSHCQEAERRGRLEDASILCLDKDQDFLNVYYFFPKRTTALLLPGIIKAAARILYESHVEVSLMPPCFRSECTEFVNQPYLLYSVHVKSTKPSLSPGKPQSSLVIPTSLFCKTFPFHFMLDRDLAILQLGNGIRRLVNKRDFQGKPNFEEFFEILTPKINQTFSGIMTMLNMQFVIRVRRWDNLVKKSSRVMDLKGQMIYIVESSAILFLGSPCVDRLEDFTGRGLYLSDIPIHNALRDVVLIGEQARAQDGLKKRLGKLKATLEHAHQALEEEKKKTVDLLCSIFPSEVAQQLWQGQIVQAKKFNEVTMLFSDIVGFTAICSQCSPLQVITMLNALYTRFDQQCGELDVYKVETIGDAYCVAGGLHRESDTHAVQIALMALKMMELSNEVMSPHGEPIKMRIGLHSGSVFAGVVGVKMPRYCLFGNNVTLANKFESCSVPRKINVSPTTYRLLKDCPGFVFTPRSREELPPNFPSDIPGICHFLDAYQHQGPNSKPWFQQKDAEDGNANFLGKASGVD
Nature of the assay: B-2. Action on recombinant guanylate cyclase reporter cell line. The assay is classed as cell-based. To be noted: MEC = minimal effective concentration; in some cases mean values from individual determinations. As for the experimental part: B-2. Action on Recombinant Guanylate Cyclase Reporter Cell Line
The cellular action of the compounds according to the invention is determined on a recombinant guanylate cyclase reporter cell line, as described in F. Wunder et al., Anal. Biochem. 339, 104-112 (2005).
Representative MEC values (MEC=minimal effective concentration) for the compounds according to the invention are shown in the following table (in some cases as mean values obtained from individual determinations): […]

Take `Cc1nc2c(OCc3c(F)cccc3F)cc(Cl)cn2c1C(=O)NCC(C)(N)CC(C)C` (racemic) [Example 225, rac-N-(2-Amino-2,4-dimethylpentyl)-6-chloro-8-[(2,6-difluorobenzyl)oxy]-2-methylimidazo[1,2-a]pyridine-3-carboxamide]: the MEC amounted to 0.30 µM.
For the compound `Cc1nc2c(OCc3c(F)cccc3F)cccn2c1C(=O)NCC(N)C(F)(F)C(F)F` (racemic) [Example 230, rac-N-(2-Amino-3,3,4,4-tetrafluorobutyl)-8-[(2,6-difluorobenzyl)oxy]-2-methylimidazo[1,2-a]-pyridine-3-carboxamide], the MEC is 1.00 µM.
The same measure for `CCCC(C)(N)CNC(=O)c1c(C)nc2c(OCc3c(F)cccc3F)cc(C)cn12` (racemic) [Example 232, rac-N-(2-Amino-2-methylpentyl)-8-[(2,6-difluorobenzyl)oxy]-2,6-dimethylimidazo[1,2-a]pyridine-3-carboxamide]: 0.10 µM.
For `Cc1cc(OCc2c(F)cccc2F)c2nc(C)c(C(=O)NCC3CCc4ccccc4N3)n2c1` (racemic) [Example 235, rac-8-[(2,6-Difluorobenzyl)oxy]-2,6-dimethyl-N-(1,2,3,4-tetrahydroquinolin-2-ylmethyl)imidazo-[1,2-a]pyridine-3-carboxamide] the value was 0.30 µM.
Turning to `Cc1nc2c(OCc3c(F)cccc3F)cc(Cl)cn2c1C(=O)NCC(C)(N)C(F)(F)F` (racemic) [Example 236, rac-N-(2-Amino-3,3,3-trifluoro-2-methylpropyl)-6-chloro-8-[(2,6-difluorobenzyl)oxy]-2-methylimidazo[1,2-a]pyridine-3-carboxamide], the MEC stood at 0.30 µM.
The same measure for `Cc1cc(OCc2c(F)cccc2F)c2nc(C)c(C(=O)NCC(C)(N)C(F)(F)F)n2c1` (racemic) [Example 239, rac-N-(2-Amino-3,3,3-trifluoro-2-methylpropyl)-8-[(2,6-difluorobenzyl)oxy]-2,6-dimethyl-imidazo[1,2-a]pyridine-3-carboxamide]: 0.30 µM; for `CCCC(C)(N)CNC(=O)c1c(C)nc2c(OCc3c(F)cccc3F)cc(Cl)cn12` (racemic) [Example 244, rac-N-(2-Amino-2-methylpentyl)-6-chloro-8-[(2,6-difluorobenzyl)oxy]-2-methylimidazo[1,2-a]-pyridine-3-carboxamide]: 0.30 µM.
The same measure for `Cc1cc(OCCC(C)C)c2nc(C)c(C(=O)NCC(C)(N)CC(C)C)n2c1` (racemic) [Example 249, rac-N-(2-Amino-2,4-dimethylpentyl)-2,6-dimethyl-8-(3-methylbutoxy)imidazo[1,2-a]pyridine-3-carboxamide]: 1.00 µM; for `Cc1nc2c(OCc3c(F)cccc3F)cccn2c1C(=O)NCC1CCc2ccccc2N1` (racemic) [Example 250, rac-8-[(2,6-Difluorobenzyl)oxy]-2-methyl-N-(1,2,3,4-tetrahydroquinolin-2-ylmethyl)imidazo[1,2-a]pyridine-3-carboxamide]: 1.00 µM; for `CCC(C)(N)CNC(=O)c1c(C)nc2c(OCc3c(F)cccc3F)cccn12` (racemic) [Example 254, rac-N-(2-Amino-2-methylbutyl)-8-[(2,6-difluorobenzyl)oxy]-2-methylimidazo[1,2-a]pyridine-3-carboxamide]: 0.30 µM.
Turning to `Cc1cc(OCCC(C(F)(F)F)C(F)(F)F)c2nc(C)c(C(=O)NCC(C)(N)CC(C)C)n2c1` (racemic) [Example 258, rac-N-(2-Amino-2,4-dimethylpentyl)-2,6-dimethyl-8-[4,4,4-trifluoro-3-(trifluoromethyl)butoxy]-imidazo[1,2-a]pyridine-3-carboxamide], the MEC amounted to 1.00 µM.
For `Cc1cc(OCc2c(F)cccc2F)c2nc(C)c(C(=O)NCC(C)(N)C3CC3)n2c1` (racemic) [Example 259, rac-N-(2-Amino-2-cyclopropylpropyl)-8-[(2,6-difluorobenzyl)oxy]-2,6-dimethylimidazo[1,2-a]-pyridine-3-carboxamide] the value was 0.03 µM; for `Cc1cc(OCc2c(F)cccc2F)c2nc(C)c(C(=O)NCC(C)(N)CCOCc3ccccc3)n2c1` (racemic) [Example 262, rac-N-[2-Amino-4-(benzyloxy)-2-methylbutyl]-8-[(2,6-difluorobenzyl)oxy]-2,6-dimethylimidazo-[1,2-a]pyridine-3-carboxamide], 0.10 µM.
Regarding `Cc1nc2c(OCc3c(F)cccc3F)cccn2c1C(=O)NCC(C)(N)COCc1ccccc1` (racemic) [Example 263, rac-N-[2-amino-3-(benzyloxy)-2-methylpropyl]-8-[(2,6-difluorobenzyl)oxy]-2-methylimidazo[1,2-a]pyridine-3-carboxamide], the MEC was 1.00 µM.
For the compound `Cc1nc2c(OCc3c(F)cccc3F)cccn2c1C(=O)NCC(C)(N)CCOCc1ccccc1` (racemic) [Example 264, rac-N-[2-amino-4-(benzyloxy)-2-methylbutyl]-8-[(2,6-difluorobenzyl)oxy]-2-methylimidazo[1,2-a]pyridine-3-carboxamide], the MEC was 0.03 µM.
For the compound `Cc1cc(OCc2c(F)cccc2F)c2nc(C)c(C(=O)NCC(C)(N)COCc3ccccc3)n2c1` (racemic) [Example 265, rac-N-[2-amino-3-(benzyloxy)-2-methylpropyl]-8-[(2,6-difluorobenzyl)oxy]-2,6-dimethylimidazo[1,2-a]pyridine-3-carboxamide], the MEC is 0.30 µM.
The same measure for `Cc1cc(OCc2c(F)cccc2F)c2nc(C)c(C(=O)NCC(C)(N)CCO)n2c1` (racemic) [Example 270, rac-N-(2-Amino-4-hydroxy-2-methylbutyl)-8-[(2,6-difluorobenzyl)oxy]-2,6-dimethylimidazo[1,2-a]pyridine-3-carboxamide]: 1.00 µM.
The same measure for `Cc1nc2c(OCc3c(F)cccc3F)cccn2c1C(=O)NCC(C)(N)CO` (racemic) [Example 273, rac-N-(2-Amino-3-hydroxy-2-methylpropyl)-8-[(2,6-difluorobenzyl)oxy]-2-methylimidazo[1,2-a]-pyridine-3-carboxamide]: 1.00 µM; for `CCCC(C)(N)CNC(=O)c1c(C)nc2c(OCc3c(F)cccc3F)c(F)ccn12` (racemic) [Example 277, rac-N-(2-Amino-2-methylpentyl)-8-[(2,6-difluorobenzyl)oxy]-7-fluoro-2-methylimidazo[1,2-a]-pyridine-3-carboxamide]: 1.00 µM.
In the case of `Cc1cc(OCc2c(F)cccc2F)c2nc(C)c(C(=O)NCC(C)(N)CF)n2c1` (racemic) [Example 282, rac-N-(2-amino-3-fluoro-2-methylpropyl)-8-[(2,6-difluorobenzyl)oxy]-2,6-dimethylimidazo[1,2-a]pyridine-3-carboxamide Formate], the MEC turned out to be 0.3 µM.
`CCCC(C)(N)CNC(=O)c1c(C)nc2c(OCc3c(F)ccc(F)c3F)cc(C)cn12` (racemic) [Example 293, rac-N-(2-amino-2-methylpentyl)-2,6-dimethyl-8-[(2,3,6-trifluorobenzyl)oxy]imidazo[1,2-a]pyridine-3-carboxamide]: the MEC is 0.03 µM.
The same measure for `Cc1cc(OCc2c(F)cccc2F)c2nc(C)c(C(=O)NCC(C)(N)Cc3ccc(F)cc3)n2c1` (racemic) [Example 296, rac-N-[2-amino-3-(4-fluorophenyl)-2-methylpropyl]-8-[(2,6-difluorobenzyl)oxy]-2,6-dimethylimidazo[1,2-a]pyridine-3-carboxamide]: 0.10 µM.
For `Cc1cc(OCc2c(F)cccc2F)c2nc(C)c(C(=O)NCC(C)(N)Cc3ccccn3)n2c1` (racemic) [Example 297, rac-N-[2-amino-2-methyl-3-(pyridin-2-yl)propyl]-8-[(2,6-difluorobenzyl)oxy]-2,6-dimethylimidazo[1,2-a]pyridine-3-carboxamide] the value was 0.10 µM.

Values taken from patent US9624214B2, “Amino-substituted imidazo[1,2-a]pyridinecarboxamides and their use” (BAYER PHARMA AKTIENGESELLSCHAFT, priority 2012, dated 2017).
